Measurements published in EP0366451A2, “The use of oxidized polyamines, especially NN'-Bis-(3-propionaldehyde)-1-4-diaminobutane (sperminedialdehyde) as immunosuppressive agents” (ORTHO PHARMACEUTICAL CORPORATION, priority 1988, dated 1990).

Assays:
Human B lymphocytes = experiment: Pokeweed mitogen driven human B cell proliferation after 1 hour incubation; type: cell-based; details: compared with T cells; Figure 1
Method: Human T & B lymphocytes were incubated separately with different concentrations of spermine dialdehyde in vitro for 1 hour. Cells were washed extensively and set up in a PHA (for T cell) or PWM (B cell) proliferation assay. A graph is depicted wherein percentage of response is plotted as a function of concentration of spermine dialdehyde.
Peripheral blood lymphocytes (PBL) were obtained from the blood of normal donors by using standard Ficoll-Hypaque gradient techniques. The T and non-T cells were separated by standard sheep red blood cell (SRBC) rosetting technique. Briefly, 5 x 10⁶/ml PBL were incubated with 1% neuraminidase-treated SRBC, and rosetted cells were separated from non-rosetted cells in a Ficoll-Hypaque gradient. The rosetted cells were designated as T cells. Purified B lymphocytes were obtained from non-rosetted cells by removal of residual T cells using the Pan T monoclonal antibody OKT 11 and complement.
T cell proliferation: 7 x 10⁴ - 10⁵ human T lymphocytes were cultured in flat bottom microtiter plates (Flow) in the presence of 0.1% PHA-P or 1/64 PWM for 4 days. 3H-thymidine (0.1 MCi/well) was added for the last 6 hours of the culture period. […] Cell associated radioactivity was determined by scintillation counting in an automated counter. All of the results were expressed as % response calculated according to the formula: [formula] […]

C3H mice = experiment: Skin graft transplant (Balb/c skin onto C3H mice); type: in vivo
Method: Spermine dialdehyde was administered s.c, right after transplantation and continued throughout the study. Cyclosporin A (CsA) was run along as a positive control.

## O=CCCNCCCCNCCC=O [SDA, NN′-Bis-(3-propionaldehyde)-1-4-diaminobutane]
Human B lymphocytes
  suppression of B lymphocyte proliferation: a much greater quantity was required
C3H mice; SDA s.c., all 3 doses, especially 10 mg/kg and 20 mg/kg, Figure 6
  skin graft survival: prolonged skin graft survival
C3H mice; mouse, in vivo
  efficacy in skin graft experiments compared with CsA: more effective than a comparable dose of CsA
